US6174907A, “Benzimidazole compounds containing 1,2,4-triazole ring, and compositions and methods of use containing the same” (Fuji Photo Film Co., Ltd., priority 1995, dated 2001)

How the values were obtained:
[1] = test system: mouse peritoneal macrophages; test: Cytotoxicity examined microscopically (morphological alteration of cells); format: cell-based, mouse (female ICR); conditions: Table 3; 5 μM; observed microscopically
Method: (§1) Activity of the compounds of the present invention for suppressing the foaming of macrophages, which triggers arterial sclerosis, was examined by an in vitro experiment using mouse peritoneal macrophages. 15-Week old female ICR mice (Nippon SLC) were subjected to bleeding by cutting off their cervicalis, and Hanks buffer (Nippon Seiyaku) was injected into their peritoneal cavities. After abdominal regions of the mice were massaged, the buffer was recovered immediately, and then the resulting buffer was centrifuged at 1,000 r.p.m. for five minutes to collect peritoneal macrophages. Then, the collected macrophages were suspended in GTI medium (Wako Pure Chemical Industries), and inoculated onto a 24-well microtiter plate. After the macrophages were cultivated at 37° C. under 5% CO2 for two hours, the culture medium was changed with Dulbecco Modified Eagle Medium (MEM, Nippon Seiyaku). The macrophages were further cultivated at 37° C. under 5% CO2 for 16 hours, and then a test compound and liposomes were added to the culture.
(§2) After cultivation was further continued at 37° C. under 5% CO2 for 16 hours, lipid fraction was extracted with chloroform and methanol. The extracted lipid fraction was dissolved in isopropyl alcohol, and the produced cholesterol ester (CE) was quantified by an enzymatic luminescence method. Yield of the cholesterol ester was calculated as a relative ratio based on yield of the control as 100% where no test compound was added. Cytotoxicity was examined microscopically by observing morphological alteration of cells. In the tables, compound numbers correspond to those of the compounds of present invention described in the examples.

[2] = test system: mouse peritoneal macrophages; test: Suppression of foaming of macrophages (cholesterol ester synthesis) in vitro; format: cell-based, mouse (female ICR); conditions: Mus musculus, Peritoneal macrophage; Table 3; 5 μM; 16 hours; relative to control as 100%; smaller value = more potent suppression; read-out: Rate of CE synthesis (%)
Method: Activity of the compounds of the present invention for suppressing the foaming of macrophages
as §1
1) Test compound: dissolved in DMSO (Wako Pure Chemical Industries),
PC: Phosphatidylcholine (Funakoshi);
PS: Phosphatidylserine (Funakoshi);
DCP: Dicetylphosphate (Funakoshi);
CHOL: Cholesterol (Sigma)
as §2

Row | SMILES | Cytotoxicity [1] | activity at 5 µM [2] [%]
1 | Cc1ccc2[nH]c(SCCCCCSc3nc4ccccc4[nH]3)nc2c1 [Compound A1, 1-(2'-(5'-methylbenzimidazolyl)thio)-5-(2"-benzimidazolylthio)pentane] | Not observed | 41
2 | Clc1ccc2[nH]c(SCCCCCSc3nc4ccccc4[nH]3)nc2c1 [Compound A2, 1-(2'-(5'-chlorobenzimidazolyl)thio)-5-(2"-benzimidazolylthio)pentane] | Not observed | 52
3 | Cc1ccc2[nH]c(SCCCCCSc3nc4cc(Cl)ccc4[nH]3)nc2c1 [Compound A3, 1-(2-(5'-chlorobenzimidazolyl)thio)-5-(2"-(5"-methylbenzimidazolyl)thio)pentane] | Not observed | 36
4 | COc1ccc2[nH]c(SCCCCCSc3nc4cc(C)ccc4[nH]3)nc2c1 [Compound A4, 1-(2'-(5'-methoxybenzimidazolyl)thio)-5-(2"-(5"-methylbenzimidazolyl)thio)pentane] | Not observed | 41
5 | COc1ccc2[nH]c(SCCCCCSc3nc4ccccc4[nH]3)nc2c1 [Compound A5, 1-(2'-benzimidazolylthio)-5-(2"-(5"-methoxybenzimidazolyl)thio)pentane] | Not observed | 39
6 | Oc1ccc2[nH]c(SCCCCCSc3nc4ccccc4[nH]3)nc2c1 [Compound A6, 1-(2'-benzimidazolylthio)-5-(2"-(5"-hydroxybenzimidazolyl)thio)pentane] | Not observed | 46
7 | CS(=O)(=O)Nc1ccc2[nH]c(SCCCCCSc3nc4ccccc4[nH]3)nc2c1 [Compound A7, 1-(2'-benzimidazolylthio)-5-(2"-(5"-methanesulfonylamino-benzimidazolyl)thio)pentane] | Not observed | 22
8 | CCC(=O)Nc1ccc2[nH]c(SCCCCCSc3nc4ccccc4[nH]3)nc2c1 [Compound A8, 1-(2'-benzimidazolylthio)-5-(2"-(5"-propionylaminobenzimidazolyl)thio)pentane] | Not observed | 24
9 | CCOC(=O)c1ccc2[nH]c(SCCCCCSc3nc4ccccc4[nH]3)nc2c1 [Compound A9, 1-(2'-(5'-ethoxycarbonylbenzimidazolyl)thio)-5-(2"-benzimidazolylthio)pentane] | Not observed | 28
10 | Cc1cc2nc(SCCCCCSc3nc4ccccc4[nH]3)[nH]c2cc1C [Compound A10, 1-(2'-(5',6'-dimethylbenzimidazolyl)thio)-5-(2"-benzimidazolylthio)pentane] | Not observed | 20
11 | Clc1cc2nc(SCCCCCSc3nc4ccccc4[nH]3)[nH]c2cc1Cl [Compound A11, 1-(2'-(5',6'-dichlorobenzimidazolyl)thio)-5-(2"-benzimidazolylthio)pentane] | Not observed | 9
12 | Clc1cc2nc(SCCCCCCSc3nc4ccccc4[nH]3)[nH]c2cc1Cl [Compound A12, 1-(2'-(5',6'-dichlorobenzimidazolyl)thio)-6-(2"-benzimidazolylthio)hexane] | Not observed | 42
13 | Clc1cc2nc(SCCCCCCCCSc3nc4ccccc4[nH]3)[nH]c2cc1Cl [Compound A13, 1-(2'-(5',6'-dichlorobenzimidazolyl)thio)-8-(2"-benzimidazolylthio)octane] | Not observed | 58
14 | Cc1ccc2[nH]c(SCCCCCSc3nc4cc(Cl)c(Cl)cc4[nH]3)nc2c1 [Compound A14, 1-(2'-(5',6'-dichlorobenzimidazolyl)thio)-5-(2"-(5"-methylbenzimidazolyl)thio)pentane] | Not observed | 42
15 | Cc1cc2nc(SCCCCCSc3nc4cc(Cl)c(Cl)cc4[nH]3)[nH]c2cc1C [Compound A15, 1-(2'-(5',6'-dichlorobenzimidazolyl)thio)-5-(2"-(5",6"-dimethylbenzimidazolyl)thio)pentane] | Not observed | 36
16 | FC(F)(F)c1cc2[nH]c(SCCCCCSc3nc4ccccc4[nH]3)nc2cc1Cl [Compound A16, 1-(2'-(5'-chloro-6'-trifluoromethylbenzimidazolyl)thio)-5-(2"-benzimidazolylthio)pentane] | Not observed | 34
17 | N#Cc1ccc2[nH]c(SCCCCCSc3nc4ccccc4[nH]3)nc2c1 [Compound A17, 1-(2'-(5'-cyanobenzimidazolyl)thio)-5-(2"-benzimidazolylthio)pentane] | Not observed | 24
18 | Cc1ccc2[nH]c(SCCCCSc3nc4ccccc4[nH]3)nc2c1 [Compound A18, 1-(2'-(5'-methylbenzimidazolyl)thio)-4-(2"-benzimidazolylthio)butane] | Not observed | 52

Row | SMILES | Cytotoxicity [1] | activity at 5 µM [2] [%]
19 | Cc1ccc2[nH]c(SCCCCCCSc3nc4ccccc4[nH]3)nc2c1 [Compound A19, 1-(2'-(5'-methylbenzimidazolyl)thio)-6-(2"-benzimidazolylthio)hexane] | Not observed | 54
20 | Cc1ccc2[nH]c(SCCCCCCCCSc3nc4ccccc4[nH]3)nc2c1 [Compound A20, 1-(2'-(5'-methylbenzimidazolyl)thio)-8-(2"-benzimidazolylthio)octane] | Not observed | 61
21 | Cc1ccc2[nH]c(SCCOCCSc3nc4ccccc4[nH]3)nc2c1 [Compound A21] | Not observed | 24
22 | Cc1ccc2[nH]c(SCCOCCOCCSc3nc4ccccc4[nH]3)nc2c1 [Compound A22] | Not observed | 20
23 | CNS(=O)(=O)c1ccc2c(c1)nc(SCCCCCSc1nc3ccccc3[nH]1)n2C [Compound A23, 1-(2'-(1'-methyl-5'-methylsulfamoylbenzimidazolyl)thio)-5-(2"-benzimidazolylthio)pentane] | Not observed | 34
24 | CCC(=O)n1c(CCCCCSc2nc3ccccc3n2C(=O)CC)nc2ccccc21 [Compound A24, 1-propionyl-2-(5-(2'-(1-propionylbenzimidazolyl)thio)pentyl)benzimidazole] | Not observed | 40
25 | CCC(=O)n1c(SCCCCCSc2nc3cc(S(=O)(=O)NC)ccc3n2C)nc2ccccc21 [Compound A25] | Not observed | 32
26 | Cn1c(CCCCCSc2nc3ccccc3n2C)nc2ccccc21 [Compound A26, 1-methyl-2-(5-(2'-(1-methylbenzimidazolyl)thio)pentyl)benzimidazole] | Not observed | 35
27 | c1ccc2[nH]c(CCCCCSc3nc4ccccc4[nH]3)nc2c1 [Compound A27, 2-(5-(2'-benzimidazolylthio)pentyl)benzimidazole] | Not observed | 48
28 | Cc1cc2nc(CCCCCSc3nc4ccccc4[nH]3)[nH]c2cc1C [Compound A28, 2-(5-(2'-benzimidazolylthio)pentyl)-5,6-dimethylbenzimidazole] | Not observed | 49
29 | O=[N+]([O-])c1ccc2[nH]c(CCCCCSc3nc4ccccc4[nH]3)nc2c1 [Compound A30] | Not observed | 52
30 | c1ccc2[nH]c(CCCCCCCSc3nc4ccccc4[nH]3)nc2c1 [Compound A31, 2-(7-(2'-benzimidazolylthio)heptyl)benzimidazole] | Not observed | 53
31 | c1ccc2[nH]c(CCCCCCCCCCCSc3nc4ccccc4[nH]3)nc2c1 [Compound A32, 2-(11-(2'-benzimidazolylthio)undecyl)benzimidazole] | Not observed | 62
32 | c1ccc2[nH]c(SCCCCCSc3nc4ccccc4s3)nc2c1 [Compound A33, 1-(2'-benzimidazolylthio)-5-(2"-benzothiazolylthio)pentane] | Not observed | 13
33 | Clc1ccc2sc(SCCCCCSc3nc4ccccc4[nH]3)nc2c1 [Compound A34, 1-(2'-benzimidazolylthio)-5-(2"-(5"-chlorobenzothiazolyl)thio)pentane] | Not observed | 28
34 | CCOc1ccc2nc(SCCCCCSc3nc4ccccc4[nH]3)sc2c1 [Compound A35, 1-(2'-benzimidazolylthio)-5-(2"-(6"-ethoxybenzothiazolyl)thio)pentane] | Not observed | 25
35 | Cc1ccc2[nH]c(SCCCCCSc3nc4ccccc4s3)nc2c1 [Compound A36] | Not observed | 21
